Laboratory results from patent EP4786473A1, “PHARMACEUTICALLY ACCEPTABLE SALT AND CRYSTALLINE FORM OF QUINAZOLINE DERIVATIVE, AND USE THEREOF” (Jiangsu Hengrui Pharmaceuticals Co., Ltd., priority 2023, dated 2025).
Like-named read-outs stand apart in the source and are kept apart here.

Experiments:
[1] = DVS (dynamic vapor sorption) hygroscopicity test; type: physicochemical
Procedure: DVS refers to dynamic vapor sorption and is determined using SMS DVS Advantage at 25°C, with the humidity change of 50%-95%-0%-95%-50% and the stepping of 10% (5% for the last step) (the specific humidity range is determined in accordance with the corresponding plot, and the methods listed herein are those most commonly used), and the standard for determination is as follow: dm/dt is not more than 0.002%.
100 mg of the compound of formula 1 was dissolved in 1 mL of acetone to give a clear solution. An aqueous p-toluenesulfonic acid solution (97.10 µL, 2 M) was added to the resulting solution. The mixture was stirred and centrifuged. The resulting solid was collected and dried under vacuum to obtain a product. […] The p-toluenesulfonate ion content of the product was detected to be 22.63% by ion chromatography. […] Furthermore, the crystal form was re-detected and found to be unchanged following the DVS test.

[2] = Stability study under influencing factors; type: physicochemical
Description: The sampling and investigation period was 1 month.

[3] = Long-term/accelerated stability; type: physicochemical
[4] = system: HER2 wild-type Ba/F3 cells; assay: Ba/F3 cell proliferation assay (HER2 wild-type); type: cell-based; details: 72 hours, Celltiter-Glo
Procedure: (§1) EGFR wild-type Ba/F3 cells in the logarithmic growth phase (Cobioer, Cat. No.: CBP73110) were seeded into 96-well plates at a density of 2.5 × 10^3 cells/100 uL of growth culture medium. HER2 wild-type Ba/F3 cells (Cobioer, Cat. No.: CBP73110) or HER2 A775_G776insYVMA mutant Ba/F3 cells (Cobioer, Cat. No.: CBP73184) in the logarithmic growth phase were seeded into 96-well plates at a density of 5 × 10^3 cells/100 uL of growth culture medium. The plates were incubated overnight in a 37°C cell incubator. The following day, the compound, which had been serially diluted 3-fold in growth culture medium, was added at 100 uL/well. All treatments were performed in triplicate. The plates were incubated in the 37°C cell incubator for another 72 hours. Celltiter-Glo Luminescent Cell Viability Assay was performed.
(§2) The cell proliferation rate was calculated for each well according to the following formula: Proliferation (%) = (G3 - G0 mean value of test compound wells)/(G3 mean value - GO mean value of DMSO control wells)*100. Based on the proliferation rate corresponding to each gradient concentration well and concentration thereof, the gradient curve of cell proliferation was fitted using Prism Graphpad software, and the GI50 of the compound was calculated (GI50 is defined as the compound concentration required to achieve a 50% inhibition rate of cell proliferation).

[5] = system: HER2 A775_G776insYVMA mutant Ba/F3 cells; assay: Ba/F3 cell proliferation assay (HER2 exon 20 YVMA insertion mutant); type: cell-based; details: 72 hours, Celltiter-Glo; for GI50: read-out: HER2 A775_G776 ins YVMA/BaF 3 GI50
Procedure: as §1, §2

[6] = system: EGFR wild-type Ba/F3 cells; assay: Ba/F3 cell proliferation assay (EGFR wild-type); type: cell-based; details: 72 hours, Celltiter-Glo
Procedure: as §1, §2

[7] = 75% RH, 1 month, open container
[8] = 75% RH, 13 days, open container
[9] = 92.5% RH, 1 month, open container
[10] = 92.5% RH, 13 days, open container
[11] = 4500 Lux, 1 month, open container
[12] = 4500 Lux, 7 days, open container
[13] = 4500 Lux, 13 days, open container

C=CC(=O)N1[C@@H]2CC[C@H]1C[C@@H](Oc1ccc3ncnc(Nc4ccc(Oc5ccn6ncnc6c5)c(C)c4F)c3c1)C2 [Crystal form I of p-toluenesulfonate, 1-(endo-3-((4-((4-([1,2,4]triazolo[1,5-a]pyridin-7-yloxy)-2-fluoro-3-methylphenyl)amino)quinazolin-6-yl)oxy)-8-azabicyclo[3.2.1]oct-8-yl)prop-2-en-1-one]
weight gain after moisture absorption ([1]; accelerated test conditions (70% RH)): about 1.57%
crystal form re-detected following the DVS test ([1]; after DVS test): unchanged
weight gain after moisture absorption ([1]; extreme conditions (90% RH)): about 2.21%
weight gain after moisture absorption ([1]; normal storage conditions (25°C, 60% RH)): about 1.18%
Colour and trait ([2]; 40°C, 1 month, open container): White powder
Purity% ([2]; 40°C, 1 month, open container): 95.2%
Salt form ([2]; 40°C, 1 month, open container): Unchanged
Colour and trait ([2]; 40°C, 7 days, open container): White powder
Purity% ([2]; 40°C, 7 days, open container): 98.7%
Salt form ([2]; 40°C, 7 days, open container): Unchanged
Colour and trait ([2]; 40°C, 13 days, open container): White powder
Purity% ([2]; 40°C, 13 days, open container): 97.6%
Salt form ([2]; 40°C, 13 days, open container): Unchanged
Colour and trait ([2]; 60°C, 1 month, open container): White powder
Purity% ([2]; 60°C, 1 month, open container): 94.9%
Salt form ([2]; 60°C, 1 month, open container): Unchanged
Colour and trait ([2]; 60°C, 7 days, open container): White powder
Purity% ([2]; 60°C, 7 days, open container): 98.7%
Salt form ([2]; 60°C, 7 days, open container): Unchanged
Colour and trait ([2]; 60°C, 13 days, open container): White powder
Purity% ([2]; 60°C, 13 days, open container): 97.8%
Salt form ([2]; 60°C, 13 days, open container): Unchanged
Colour and trait [2, 7]: White powder
Purity% [2, 7]: 99.7%
Salt form [2, 7]: Unchanged
Colour and trait [2, 8]: White powder
Purity% [2, 8]: 99.7%
Salt form [2, 8]: Unchanged
Colour and trait [2, 9]: White powder
Purity% [2, 9]: 99.7%
Salt form [2, 9]: Unchanged
Colour and trait [2, 10]: White powder
Purity% [2, 10]: 99.7%
Salt form [2, 10]: Unchanged
Colour and trait [2, 11]: White powder
Purity% [2, 11]: 99.1%
Salt form [2, 11]: Unchanged
Colour and trait [2, 12]: White powder
Purity% [2, 12]: 99.6%
Salt form [2, 12]: Unchanged
Colour and trait [2, 13]: White powder
Purity% [2, 13]: 99.5%
Salt form [2, 13]: Unchanged
Colour and trait ([2]; Initial, 0 day): White powder
Purity% ([2]; Initial, 0 day): 99.7%
Salt form ([2]; Initial, 0 day): Crystal form I of p-toluenesulfonate
Colour and trait ([3]; 25°C/60% RH, 1 month): White powder
Purity% ([3]; 25°C/60% RH, 1 month): 99.7%
Salt form ([3]; 25°C/60% RH, 1 month): Unchanged
Colour and trait ([3]; 25°C/60% RH, 2 months): White powder
Purity% ([3]; 25°C/60% RH, 2 months): 99.7%
Salt form ([3]; 25°C/60% RH, 2 months): Unchanged
Colour and trait ([3]; 25°C/60% RH, 3 months): White powder
Purity% ([3]; 25°C/60% RH, 3 months): 99.7%
Salt form ([3]; 25°C/60% RH, 3 months): Unchanged
Colour and trait ([3]; 25°C/60% RH, 6 months): White powder
Purity% ([3]; 25°C/60% RH, 6 months): 99.7%
Salt form ([3]; 25°C/60% RH, 6 months): Unchanged
Colour and trait ([3]; 25°C/60% RH, 14 days): White powder
Purity% ([3]; 25°C/60% RH, 14 days): 99.7%
Salt form ([3]; 25°C/60% RH, 14 days): Unchanged
Colour and trait ([3]; 40°C/75% RH, 1 month): White powder
Purity% ([3]; 40°C/75% RH, 1 month): 99.7%
Salt form ([3]; 40°C/75% RH, 1 month): Unchanged
Colour and trait ([3]; 40°C/75% RH, 2 months): White powder
Purity% ([3]; 40°C/75% RH, 2 months): 99.7%
Salt form ([3]; 40°C/75% RH, 2 months): Unchanged
Colour and trait ([3]; 40°C/75% RH, 3 months): White powder
Purity% ([3]; 40°C/75% RH, 3 months): 99.7%
Salt form ([3]; 40°C/75% RH, 3 months): Unchanged
Colour and trait ([3]; 40°C/75% RH, 6 months): White powder
Purity% ([3]; 40°C/75% RH, 6 months): 99.7%
Salt form ([3]; 40°C/75% RH, 6 months): Unchanged
Colour and trait ([3]; 40°C/75% RH, 14 days): White powder
Purity% ([3]; 40°C/75% RH, 14 days): 99.6%
Salt form ([3]; 40°C/75% RH, 14 days): Unchanged
Colour and trait ([3]; Initial, 0 day): White powder
Purity% ([3]; Initial, 0 day): 99.7%
Salt form ([3]; Initial, 0 day): Crystal form I of p-toluenesulfonate

C=CC(=O)N1[C@@H]2CC[C@H]1C[C@@H](Oc1ccc3ncnc(Nc4ccc(Oc5ccn6ncnc6c5)c(C)c4F)c3c1)C2 [Example 1, 1-(endo-3-((4-((4-([1,2,4]triazolo[1,5-a]pyridin-7-yloxy)-2-fluoro-3-methylphenyl)amino)quinazolin-6-yl)oxy)-8-azabicyclo[3.2.1]oct-8-yl)prop-2-en-1-one]
HER2 WT/BaF 3 Imax % [4]: 100%
GI50 ([4]; read-out: HER2 WT/Ba F3 GI50): 9.3 nM
HER2 A775_G77 6 ins YVMA/Ba F3 Imax % [5]: 100%
GI50 [5]: 10.3 nM
EGFR WT/BaF 3 Imax % [6]: 100%
GI50 ([6]; read-out: EGFR WT/BaF3 GI50): 2840 nM

Cc1cc(Nc2ncnc3ccc(NC4=NC(C)(C)CO4)cc23)ccc1Oc1ccn2ncnc2c1 [Tucatinib, reference compound]
HER2 A775_G77 6 ins YVMA/Ba F3 Imax % [5]: 100%
GI50 ([5]; Mus musculus, BaF3): 309 nM
